Measured values as given in the METLIN SMRT retention time set (Domingo-Almenara et al. 2019).

Test: gradient 5% acetonitrile 3 min, to 50% in 2 min, to 85% in 15 min, held 3 min, 100 µL/min
Conditions: column: Zorbax Extend-C18 2.1 x 50 mm; eluents: water / acetonitrile, 0.1% formic acid
In short: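 The system's dead and dwell volumes were 40 μL and 900 μL, with a Zorbax Extend-C18 column (2.1 × 50 mm, 1.8 μm) run at 100 μL/min in water and acetonitrile containing 0.1% formic acid each. Pure standards were analyzed in mixtures of ~100 molecules by HPLC–quadrupole time-of-flight mass spectrometry in positive and negative ionization mode. Retention time was assigned from computationally picked, manually inspected adduct peaks.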

| SMILES | RP-LC retention time [s] |
| --- | --- |
| COc1cc(-c2nc(Cn3ccn4nc(-c5ccccc5)cc4c3=O)c(C)o2)cc(OC)c1OC | 990 |
| C=C1C(=O)O[C@@H]2[C@H]3O[C@]3(C)CCC=C(C)CC[C@@H]12 | 844 |
| CSc1ccc(-c2nc3nc(C)cc(C)n3c2Nc2ccccc2)cc1 | 755 |
| Cc1ccc(Cl)cc1NC(=O)Nc1cccc(-c2ccc(N3CCOCC3)nn2)c1 | 753 |
| CCn1c(C(=O)NC(C)CCc2ccccc2)cc2sc(Cl)cc21 (configuration not stated) | 1270 |
| CCn1cnc2ccc(-c3noc(-c4cccc(OC)c4)n3)cc21 | 788 |
| CCc1cccc(C)c1Nc1c(-c2ccc(Cl)cc2)nc2cnccn12 | 1110 |
| CC1CN(C(=O)COc2ccc3ccccc3c2)c2ccccc2NC1=O (configuration not stated) | 825 |
| COC(=O)c1ccc2c(=O)n(-c3ccc(C)cc3)c(N3CCN(c4ccccn4)CC3)nc2c1 | 728 |
| CCOC(=O)Cc1c(CN2CCN(C)CC2)c2ccccc2n1Cc1ccccc1 | 681 |
| CC1=C(C(=O)N(CC(=O)NCc2ccccc2)c2ccc(Cl)cc2)SCCO1 | 934 |
| Cc1cccc(-c2nnc(-c3cc(S(=O)(=O)N4CCOCC4)ccc3Cl)o2)c1 | 992 |
| CCOC(=O)C1=C(CN2CCC(C(=O)OCC)CC2)NC(=O)NC1c1ccccc1 (configuration not stated) | 643 |
| O=C(c1csc(-c2cccnc2)n1)N1CCN(c2ncccn2)CC1 | 648 |
| CCN(C(=O)Cn1c(CNC(=O)c2ccco2)nc2ccccc21)c1ccccc1 | 687 |
| CCc1nc2ccccc2c(=O)n1Cc1noc(/C=C/c2ccc(OC)cc2)n1 | 1000 |
| CCS(=O)(=O)N(C1CC1)C1CCOC2(CCN(C(=O)C3CC3)CC2)C1 (configuration not stated) | 710 |
| O=C1c2cccc(NCCCNCCO)c2C(=O)c2cccc(NCCCNCCO)c21 | 583 |
| CC1(C)C(=O)NCCN1C(=O)c1cccc(Cl)c1 | 637 |
| COc1cc([C@@H]2c3cc4c(cc3[C@@H](O[C@@H]3O[C@@H]5COC(c6cccs6)O[C@H]5[C@H](O)[C@H]3O)[C@H]3COC(=O)[C@H]23)OCO4)cc(OC)c1O (some centres not stated) | 780 |

| SMILES | RP-LC retention time [s] |
| --- | --- |
| Cc1nnc2n1CCC(N(C)C(=O)c1cc(C3CC3)[nH]n1)CC2 (configuration not stated) | 530 |
| CCc1nc2cccnc2n1C1CCN(C(=O)CCCc2ccccc2)C1 (configuration not stated) | 647 |
| Cc1ccsc1C(=O)Nc1cnc(-c2ccc(Cl)cc2)nc1 | 1110 |
| CCOC(=O)C1CCN(c2cc3c(cc2NC(=O)C(C)(C)C)n(C)c(=O)c(=O)n3C)CC1 | 844 |
| CC1CCCN(C(=O)c2ccc(-n3cccn3)nc2)C1 (configuration not stated) | 825 |
| COc1ccccc1CC1C(=O)Nc2ccc(Br)cc21 (configuration not stated) | 976 |
| COC(=O)CNC(c1ccccc1)c1cc(C)ccc1NS(=O)(=O)c1ccc(C)cc1 (configuration not stated) | 904 |
| CC(C)(C)c1ccc(C(=O)CCCN2CCC(OC(c3ccccc3)c3ccccc3)CC2)cc1 | 1190 |
| Cc1ccc2[nH]c(C(=O)NC3CC3)cc2c1 | 782 |
| CCOC(=O)c1noc2ncnc(NCCCN3CCN(c4cccc(C)c4)C(C)C3)c12 (configuration not stated) | 619 |
| CC(=O)NCc1ccc(-c2noc(/C=C/c3cccc(Cl)c3)n2)s1 | 903 |
| COc1ccc2c(c1)c(CC(=O)OCC(=O)O)c(C)n2C(=O)c1ccc(Cl)cc1 | 958 |
| CCN(CC)S(=O)(=O)c1cccc(-c2cn3cc(C)ccc3n2)c1 | 598 |
| CCCN(Cc1ccc(OC)cc1)Cc1cc(=O)n2cccc(C)c2n1 | 644 |
| Cc1nc(NC(=O)CN(C)c2nc3c(C)ccc(C)c3s2)sc1C(=O)N(C)C | 803 |
| Cc1ccc(NS(=O)(=O)c2cc(-c3cc(C(F)(F)F)on3)cs2)c(Br)c1 | 1160 |
| COc1ccc(C(O)Cn2ccn3nc(-c4ccc(C(C)C)cc4)cc3c2=O)cc1 (configuration not stated) | 1060 |
| O=C1CC(c2noc(-c3cc(F)ccc3F)n2)CN1c1ccc(Cl)cc1 (configuration not stated) | 1020 |
| Cc1nc(C)c(C(=O)Nc2nc(-c3ccc(OC(C)C)cc3)cs2)s1 | 1020 |
| COc1ccc(-c2noc(C3CCCN3C(=O)c3ccccc3OC)n2)cc1OC (configuration not stated) | 834 |

Next, values leading:

| RP-LC retention time [s] | SMILES |
| --- | --- |
| 949 | CC(C)c1ccc(NC(=O)C2CCN(C(=O)c3ncn4c3COC(c3ccc(F)cc3)C4)CC2)cc1 (configuration not stated) |
| 1070 | COc1cccc(Cn2c(C(=O)N3CCC(C(=O)NC4CCCCCC4)CC3)cc3ccsc32)c1 |
| 836 | Cc1nc(N2CCCC2)c2c(C(=O)Nc3ccc(C)c(F)c3)c(C)oc2n1 |
| 665 | Cc1csc(CN2CCN(C(=O)CC(c3ccccc3)c3ccccc3)CC2)n1 |
| 600 | CCOC(=O)C1CCN(Cc2nc(-c3ccc(N4CCCCCC4)nc3)no2)CC1 |
| 946 | Cc1nc(-c2csc(S(=O)(=O)N3CCCC(C(=O)Nc4ccc(F)cc4)C3)c2)no1 (configuration not stated) |
| 712 | CC(C)(C)NC(=O)N1CCCCC1c1nncn1-c1ccccc1 (configuration not stated) |
| 611 | COc1ccc(CC(=O)N2CCN(c3cc(C)n4cnnc4n3)CC2)cc1Cl |
| 778 | CC(=O)Nc1ccc(NC(=O)c2nn(-c3ccc(F)cc3)c3ccccc3c2=O)cc1 |
| 735 | CCc1cccc(NC(=O)C2CCN(S(=O)(=O)c3ccc4c(c3)CCCC(=O)N4)CC2)c1 |
| 732 | O=C(NC1CCCCCCC1)C1CC(=O)N(CCc2c[nH]c3ccc(Cl)cc23)C1 (configuration not stated) |
| 798 | O=C(Nc1ccc(F)c(Cl)c1)N1CCC(N2CCN(Cc3cccc(F)c3)C(=O)C2=O)CC1 |
| 718 | CS(=O)(=O)Nc1cccc(NC(=O)c2ccc(=O)n(Cc3ccccc3)n2)c1 |
| 662 | COc1ccc(CNC(=O)c2nc(N3CCOCC3)c3ccccc3n2)cc1 |
| 1190 | COC(=O)c1cnc(N2CCN(c3ccc(F)cc3)CC2)c2ccccc12 |
| 858 | O=C1Nc2cc(S(=O)(=O)NCCC3=CCCCC3)ccc2SC1C(=O)N1CCCC1 (configuration not stated) |
| 648 | O=C(c1cn2c(n1)CCCC2)N1CCN(c2ccc(Cl)cc2)CC1 |
| 752 | Cc1ccccc1CNC(=O)Cn1c(C)nc2onc(C)c2c1=O |
| 764 | O=C(Cn1nc2n(c1=O)CCCCC2)Nc1ccc(C(F)(F)F)cc1 |
| 597 | CC(C)n1cnc(S(=O)(=O)N2CCCC(C(=O)NCc3ccc(N(C)C)cc3)C2)c1 (configuration not stated) |
| 811 | CC(CCc1ccccc1)NC(=O)C1CCN(C(=O)C2Sc3ccccc3NC2=O)CC1 (configuration not stated) |
| 1250 | Cc1cc(NC(=O)c2c(O)c3cccnc3n(-c3ccc(F)cc3)c2=O)ccc1F |
| 627 | CC(C(=O)N1CCN(c2cc(=O)n(C)c(=O)n2C)CC1)N1C(=O)COc2ccccc21 (configuration not stated) |
| 545 | CC(NC(=O)c1ccc2ncnc(N3CCCCC3)c2c1)c1cccnc1 (configuration not stated) |

| RP-LC retention time [s] | SMILES |
| --- | --- |
| 738 | O=c1ccc(N2CCC(NS(=O)(=O)c3cccnc3)C2)nn1CCOc1ccccc1 (configuration not stated) |
| 606 | CC(=O)N1CCc2nn(CC(=O)Nc3ccccc3Cl)c(=O)cc2C1 |
| 1070 | COc1ccc(S(=O)(=O)N2CCCC(C(=O)NCCC3=CCCCC3)C2)cc1Cl (configuration not stated) |
| 704 | CCC1CCCCN1Cc1nc(Cn2ccn3nc(-c4ccc(F)cc4)cc3c2=O)no1 (configuration not stated) |
| 992 | COc1ccc(-c2nnc(SCc3cccc(C(F)(F)F)c3)o2)cc1OC |
| 744 | COC(=O)Nc1nc(CC(=O)Nc2ccc(F)c(Cl)c2)cs1 |
| 646 | CNC(=O)C1CCCN(c2nc3ncn(CC(=O)Nc4ccc(C)cc4C)c(=O)c3s2)C1 (configuration not stated) |
| 930 | Cc1nc(-c2csc(S(=O)(=O)N3CCCC(C(=O)Nc4cccc(C#N)c4)C3)c2)no1 (configuration not stated) |
| 723 | Cn1nc(C(=O)Nc2cccc3nsnc23)ccc1=O |
| 1080 | O=C(Nc1ccc2c(c1)CCCN2S(=O)(=O)c1ccccc1)c1c(F)cccc1Cl |
| 636 | CC1(C)CC(=O)c2cn(-c3ccc(F)cc3)c(=O)c(C(=O)N3CCN(c4ccccn4)CC3)c2C1 |
| 805 | Cc1ccc(-n2c(N3CCCC(C(=O)NCC4CC4)C3)nc3ccsc3c2=O)cc1 (configuration not stated) |
| 930 | O=C(NCC1CCCCC1)c1ccc(NC(=O)C2CCC2)cc1N1CCOCC1 |
| 723 | O=C(NCc1ccco1)C1CCN(c2cnn(Cc3ccccc3)c(=O)c2)CC1 |
| 1170 | CCc1nc2c(sc3nc(-c4ccccc4)ccc32)c(=O)n1CC(=O)N1CCc2ccccc2C1 |
| 812 | Cc1ccc(S(=O)(=O)N2CCCC(CCC(=O)O)C2)cc1 (configuration not stated) |
| 610 | O=C(NCCCN1CCOCC1)c1ccc(CS(=O)Cc2cccc(Cl)c2)o1 (configuration not stated) |
| 681 | Cn1c(=O)n(CCN2CCCCC2)c(=O)c2c1nc1n2CCCN1C1CCCCC1 |
| 870 | CN(C)c1cc(N2CCCC(NC(=O)Cc3ccsc3)C2)ncn1 (configuration not stated) |
| 588 | CN(C)C(=O)c1ccc2c(c1)nc(CN1CCN(C(=O)c3cccs3)CC1)n2C |
| 730 | O=C(Nc1ccc(OCC(=O)N2CCN(c3ccccc3)CC2)nc1)C1CC1 |
| 704 | O=C(Nc1ccc2ncnc(N3CCCCC3)c2c1)c1ccc(Br)o1 |
| 752 | CCN(CC)C(=O)c1sc2ncn(CC(=O)N3CCCCC3C)c(=O)c2c1C (configuration not stated) |
